Data from a melting point compilation (Tetko et al.; mined from patent text by program, amines drawn as free bases though some values may be those of a salt).

For `NCCOCC(P(=O)(O)O)P(=O)(O)O`, the melting point was greater than 300 °C. With `C=CCONC(CCC)=C1C(=O)C=C(C)OC1=O` the melting point was 52 to 54 °C. Work on `CCCCCCCCCCc1ccc(CCC(N)(CO)CCO)cc1` (stereo not drawn) yielded a melting point of 69 to 72 °C. Molecule `O=[N+]([O-])c1cnc(Sc2n[nH]c(-c3ccccc3)n2)s1` has a melting point of 155 to 157 °C. `COc1cc(Cc2cnc(N[N+](=O)[O-])[nH]c2=O)ccn1` showed a melting point of 194 to 196 °C. In the case of `COC(CNC(=O)CCN1C(=O)NC(C)(C)C1=O)OC`, the melting point is reported as 123 °C. `CC(C)(C)OC(=O)NC1CCC(CON2C(=O)c3ccccc3C2=O)C1` (stereo not drawn) gave a melting point of 162 to 163 °C. With `COc1ccc(COCn2cc(Cl)cnc2=O)cc1` the melting point was 118 °C. Work on `O=C(NCCOc1ccc(CC(Oc2ccc(C(F)(F)F)cc2)C(=O)O)cc1)c1ccc(-c2ccccn2)cc1` (stereo not drawn) yielded a melting point of 154 to 155 °C. Molecule `O=c1[nH]c2c(Cl)ccc(Cl)c2c(=O)n1CCCN1CC=C(c2ccc(Cl)cc2)CC1` has a melting point of 207 to 209 °C. For `O=C1C(c2ccccc2)=CC(=O)c2c(O)c(-c3ccccc3)cc(O)c21`, the melting point was 170 to 173 °C. `Cc1cccc(NC(=O)OC(C)(C)C)c1COc1cccn2c(C=O)c(C)nc12` gave a melting point of 189 to 191 °C. Molecule `COC(=O)C[C@H](O)CC(=O)C=Cc1c(-c2ccc(F)cc2)c(-c2ccccc2)c(C(=O)NCc2ccc(F)cc2)n1C(C)C` has a melting point of 62 to 63 °C. `CC(=O)Nc1cccc2c1CCCC2` showed a melting point of 158 °C. `CCOC(=O)n1c(SC(F)(F)F)cc(-c2ccc(F)cc2)c1-c1ccc(F)cc1` gave a melting point of 54 to 54.5 °C. With `CCOC(=O)c1c(CCl)nc2sc3c(c2c1-c1ccc(OC)c(OC)c1)CCCN3C(=O)OCc1ccccc1` the melting point was 178 to 179 °C. In the case of `CN(C)CCCN1C(=O)c2cc(Cl)c(S(N)(=O)=O)cc2C1=O`, the melting point is reported as 192 to 194 °C. `CN1C(=O)CC[C@]2(C)c3ccc(Sc4nc5c(OC(F)(F)F)cccc5s4)cc3CC[C@@H]12` gave a melting point of 168 to 173 °C. In the case of `O=C(Oc1ccccc1)N1C(C2=COc3ccccc3O2)=COc2cccnc21`, the melting point is reported as 142 °C. With `C[C@](N)(CO)CCc1ccc2oc(-c3ccc(O)cc3)nc2c1` the melting point was 229 to 231 °C. `Nc1nnc(-c2ccc(C(F)(F)F)cc2)cc1C(F)(F)F` showed a melting point of 186 to 190 °C. For `C=CCc1c(OCC(O)CSCCO)ccc(C(C)=O)c1O` (stereo not drawn), the melting point was 54 to 56 °C. Molecule `CC(C)(C)c1onc(NC(=O)C2CC2)c1Cl` has a melting point of 130 to 131 °C. `CCCCN(C(=O)c1cnc(N2CC(C)(C)NC2=O)nc1N)c1cccc(C(F)(F)F)c1` gave a melting point of 154 to 155 °C. `COC(=O)c1cc(C(=O)N2CCSCC2)c2cc(Cc3ccc(F)cc3)cnc2c1O` showed a melting point of 184 to 185 °C. With `O=C(O)c1ccc2c(c1)Sc1ccccc1NC2=O` the melting point was 362 to 364 °C. Work on `CCN(CC)c1ccc(-c2cc(-c3ccc(C(=O)O)cc3)ccc2CC(O)CO)cc1C(C)(C)C` (stereo not drawn) yielded a melting point of 130 °C. Work on `Clc1ccc(CNc2cccnc2)cc1` yielded a melting point of 107 to 108 °C. With `O=c1[nH]c2c(c3ccccc13)c1cc(Cl)ccc1n2CC1CC1` the melting point was greater than 300 °C. In the case of `COc1ccc(-c2cnc3cc4cn[nH]c4cc3n2)cc1F`, the melting point is reported as 175 to 179 °C. With `OCc1ccc(-c2ccc(OC(F)(F)F)cc2)nc1` the melting point was 57 to 58 °C. With `CC(Oc1ncn(-c2ccccc2)n1)C(=O)OCc1ccccc1` (stereo not drawn) the melting point was 78 to 80 °C. With `CCOC(=O)c1nc(N)sc1-c1cn2ccc(C)cc2n1` the melting point was 278 to 280 °C. `CCC(=O)N1CCC[C@H]1C(=O)O` showed a melting point of 98 to 99 °C. In the case of `N=C(NO)c1ccc2[nH]cc(CCN3C(=O)c4ccccc4C3=O)c2c1`, the melting point is reported as 168 to 170 °C. `COc1ccc(N2CCN(c3c(C)c(C)c4c(c3C)C(c3ccc5ccccc5c3)C(C)(C)O4)CC2)cc1` (stereo not drawn) showed a melting point of 170 to 171 °C. With `O=Cc1cncc(Br)c1` the melting point was 95 °C. Molecule `COc1ccc(-c2cnc3[nH]cc(C(=O)NC4CCN(C(C)=O)C4)c3n2)cc1OC` (stereo not drawn) has a melting point of 211 to 212 °C. With `CC1(C)CON(Cc2ccc(NC(=O)C3=C(C(=O)O)CCCC3)cc2Br)C1=O` the melting point was 149 to 151 °C. Work on `CC(C)OC(=O)c1cc(N)c(F)c(Cl)n1` yielded a melting point of 191 to 192 °C. `CON(C)Cc1nc2c(N)nc3ccccc3c2n1CC(C)(C)O` showed a melting point of 220 to 222 °C. Molecule `COC(=O)Oc1c(Cl)c(-c2ccc(Cl)cc2)oc(=O)c1-c1c(C)cc(C)cc1C` has a melting point of 136 to 138 °C. For `Cn1c(Oc2cccc(C(F)(F)F)c2)nc2c(-c3cccc(C(=O)NCCO)c3)cccc21`, the melting point was 139 to 140 °C. Work on `O=c1[nH]c2ccc(S(=O)CCN3CCC(Cc4ccc(Cl)c(Cl)c4)CC3)cc2o1` (stereo not drawn) yielded a melting point of 189 to 191 °C. Work on `O=S1c2ccccc2N(CCCCl)c2ccccc21` yielded a melting point of 171 to 173 °C. Molecule `O=C1CC2C(OCc3ccc(Br)cc3)CC(O1)C2N1CCCCC1` (single isomer, unassigned; (-)) has a melting point of 85 to 88 °C. `CN(C)c1ccc(-c2nnc(S)nc2-c2ccc(N(C)C)cc2)cc1` showed a melting point of 276 to 279 °C. Work on `CN(C(=O)Cc1ccccc1)c1cccc(-c2ccc(CC3SC(=O)NC3=O)cc2)c1` (stereo not drawn) yielded a melting point of 138 °C. `CC(C)c1[nH]c(C(=O)Nc2ccc(C(=O)O)cc2)c(C(C)C)c1C(C)C` showed a melting point greater than 300 °C. In the case of `CS(=O)(=O)c1ccc(C(=O)c2cnoc2C2CC2)c(Cl)c1-c1nccs1`, the melting point is reported as 153 to 155 °C. Work on `Cc1cc(Br)cnc1CCCCc1cc(N)cc2c1C(N)=NS2(=O)=O` yielded a melting point of 276 to 279 °C. `O=C(Nc1ccccn1)Nc1cccc2c1C1CC3(CCN1C2=O)OCCO3` (stereo not drawn) gave a melting point of 178 to 180 °C. `COC(=O)C1Cc2c([nH]c3ccccc23)C(c2cc(OC)ccc2OC)N1` (stereo not drawn) showed a melting point of 102 to 105 °C. Work on `C#CCn1nc(-c2ccc(Cl)cc2)n(CC)c1=O` yielded a melting point of 115 to 119 °C. For `ClCCCOc1ccc(SCCCCl)cc1`, the melting point was 112 °C. Work on `COc1cc(C=NC2CCCCC2)c([N+](=O)[O-])cc1OC` yielded a melting point of 160 to 161 °C. For `COC(=O)Nc1nc2cc(S(=O)CC3CCC3)ccc2[nH]1` (stereo not drawn), the melting point was 198 to 206 °C. `CC=C(Oc1nc(OC)cc(OC)n1)C(=O)OC` gave a melting point of 71 °C. Work on `Cc1c(-c2ccnn2-c2ccc(C#N)cc2)nc(C(N)=O)c(=O)n1-c1cccc(C(F)(F)F)c1` yielded a melting point of 264 °C. With `O=C(Cn1ccnc1)Nc1cccc2nc(N[C@@H]3CCc4ccccc43)ccc12` the melting point was 226 °C. Work on `CCCC(=O)Nc1cc(/C=C/C(=O)N2CC(CCl)c3ccc(NC(=O)OCc4ccc([N+](=O)[O-])cc4)cc32)n(C)c1` (stereo not drawn) yielded a melting point of 207 to 210 °C. Molecule `CC(=O)Nc1cccn(CC(=O)NC(C(=O)C(F)(F)F)C(C)C)c1=O` (stereo not drawn) has a melting point of 76 to 80 °C. In the case of `CCCc1c(OCCOCCOCCOc2c(C(C)=O)ccc(OCC(=O)O)c2CCC)ccc(C(C)=O)c1O`, the melting point is reported as 74 to 77 °C. With `CCc1nc2cc(C(N)=O)c(Cl)cc2n1-c1ccc(CCNC(=O)NS(=O)(=O)c2ccc(C)cc2)cc1` the melting point was 152 to 163 °C. With `CCCCCCCCCCCCCCCCCC1OC1C` (stereo not drawn) the melting point was 40 °C. With `CC(C)(C)OC(=O)N1CCCC(C2=C(C#N)C(c3cccc(C#N)c3Br)c3c[nH]nc3N2)C1` (stereo not drawn) the melting point was 238 °C. In the case of `COC=C(C(=O)OC)c1csc2ccc(C=Cc3ccccc3)cc12`, the melting point is reported as 180 to 181 °C. Work on `Cc1c2c(nc3ccccc13)CCN(S(=O)(=O)c1ccc(Cl)cc1)CC2` yielded a melting point of 189 °C. Molecule `Cc1ccc(Cl)c2nc3cccc(C(=O)O)c3nc12` has a melting point of 255 to 257 °C. With `N[C@@H]1CCC(=O)N[C@@H]1c1cccc(OC(F)(F)F)c1` (relative stereo) the melting point was 126 to 130 °C. For `O=C(NC1CCC(OC(=O)N2CCC3(CCCC3)CC2)CC1)C1CCN(C(=O)Oc2ccc(Oc3ccccc3)cc2)CC1` (stereo not drawn), the melting point was 230 to 231 °C. Molecule `Cc1cc(C(=O)NS(=O)(=O)c2ccccc2Cl)nc(Cl)n1` has a melting point of 170 to 171 °C. With `CN1C(=O)C(c2ccc(OC(F)(F)F)cc2)(C23CC4CC(CC(C4)C2)C3)N=C1N` (stereo not drawn) the melting point was 125 °C. Work on `O=C1NC(=O)C(Cc2ccc(OCCN3CCOCC3)cc2)S1` (stereo not drawn) yielded a melting point of 188 to 189 °C. Molecule `COc1cc(-c2nc3ccccc3n2Cc2ccc(C)cc2)cc(OC)c1OC` has a melting point of 84.5 °C. With `COc1c(C)c2c(c(OS(=O)(=O)c3ccc(C)cc3)c1CC1=C(C)C(O)CC1)C(=O)OC2` (stereo not drawn) the melting point was 108 to 112 °C. `CC(C)c1ccc(-c2ncc(-c3cccc(C(=O)O)c3)o2)cc1` gave a melting point of 193 to 195 °C. For `CC(=O)CN1CCN(C(=O)Cn2c(=O)sc3ncc(Cl)cc32)CC1`, the melting point was 191 to 193 °C. Molecule `CCCCC(=O)OCC(=O)C1C(C)CC2C3CC(Cl)C4=CC(=O)C=CC4(C)C3(Cl)C(O)CC21C` (stereo not drawn) has a melting point of 218 °C. Molecule `O=C(C1=C(O)CCS1)c1nnn(Cc2ccccc2)c1Cl` has a melting point of 118 to 120 °C. With `Cc1ccc(C(=O)c2ccc(Cl)cc2)cc1` the melting point was 129 to 130 °C. For `Nc1nc2ccccc2c2c1ncn2CCCCCCNC(=O)c1ccccc1`, the melting point was 146 to 155 °C. With `CC(C)OP(=O)(Cc1c(C2CCCCC2)cc(O)cc1C1CCCCC1)OC(C)C` the melting point was 143 °C. For `CCC1(CCCCN2CCN(c3ccccc3Cl)CC2)C(=O)Nc2ccccc21` (stereo not drawn), the melting point was 145 to 148 °C. `CC(=O)CC(=O)N[C@H]1CC(=O)OC1=O` showed a melting point of 132 to 135 °C. `N#Cc1cc(NC(=O)c2cccn2-c2ccc(F)cc2)ccc1N1CCN(CCO)CC1` showed a melting point of 170 to 171 °C. Molecule `CCOc1ccc2c(c1)C(N)(c1ccccc1Cl)C(=O)N2Cc1ccc(C(=O)NC(C)(C)CN(CC)CC)cc1` (stereo not drawn) has a melting point of 59 °C. Work on `COc1c(F)cc(CCC(=O)O)cc1F` yielded a melting point of 72 to 73 °C. `CCOc1nn(-c2cc(C(F)(F)F)ccn2)cc1CCCOc1ccc(CCC(=O)O)cc1OC` gave a melting point of 111 to 112 °C. Work on `COc1ccc(Nc2cccc(Cl)n2)cc1` yielded a melting point of 74 to 76 °C. In the case of `COc1cc(/C=C/C(=O)Nc2ccccc2C(=O)O)ccc1OCc1cn(CC(=O)Nc2ccccc2)nn1`, the melting point is reported as 220 to 222 °C. For `CC=CCn1c(C)c(C)c2cnnc(OCc3c(Cl)cccc3Cl)c21`, the melting point was 133 to 140 °C. Molecule `CCCCCCCCCCNC(=O)C=Cc1cccc(N2CC(C(=O)OCCN(CC)CC)CC2=O)c1` (stereo not drawn) has a melting point of 78 to 80 °C. In the case of `Cc1onc(-c2ccco2)c1-c1ccccc1`, the melting point is reported as 93 to 96 °C. Molecule `CC(C)(CC1CCCC1)NC(=O)CN1C(=O)c2ccccc2C1=O` has a melting point of 159 to 160 °C. Molecule `CC1(COc2nc3ccccc3o2)Cn2cc([N+](=O)[O-])nc2O1` (stereo not drawn) has a melting point of 200 to 203 °C. `C#CCN(C(=O)OC)C1CN(C(=O)Nc2ccc(OC(F)(F)F)cc2)N=C1c1ccc(Cl)cc1` (stereo not drawn) gave a melting point of 184 to 185 °C. Work on `CC(C)c1cc(C(C)C)c(NC(=O)CN2CCN(CCSc3nc4ccccc4o3)CC2)c(C(C)C)c1` yielded a melting point of 160 to 163 °C.
